Laboratory results as given in ChEMBL document CHEMBL1201862, “PubChem BioAssay data set” (2004).
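All cell lines were grown in 96-well plates and treated with compound for 48 hours. Abbreviation: GI50, concentration required for 50% inhibition of growth.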 The source made the active and inactive calls. Cut-off read from the data, not from the text of the source: active = GI50 up to about 1.1 µM and inactive = higher. Peptide text beside a SMILES is read from it. * marks the point of attachment. OSu = O=C1CCC(=O)N1O*

Columns and labels:
Experiment in all cases: NCI-60 cell line screen, 48 h
[1] = test system: Hs-578T
[2] = test system: TK-10
[3] = test system: A549
[4] = test system: U-251
[5] = test system: T47D
[6] = test system: KM12
[7] = test system: LOX IMVI
[8] = test system: SN12C
[9] = test system: SF-268
[10] = test system: HT-29
[11] = test system: UACC-257
[12] = test system: SK-MEL-28
[13] = test system: OVCAR-5
[14] = test system: A498
[15] = test system: HCT-116
[16] = test system: HCT-15
[17] = test system: RPMI-8226
[18] = test system: COLO 205
[19] = test system: HL-60

SMILES	GI50 [1]	GI50 [2]	GI50 [3]	GI50 [4]	GI50 [5]	GI50 [6]	GI50 [7]	GI50 [8]	GI50 [9]	GI50 [10]	GI50 [11]	GI50 [12]	GI50 [13]	GI50 [14]	GI50 [15]	GI50 [16]	GI50 [17]	GI50 [18]	GI50 [19]
CCOC(=O)Oc1ccc2c(c1)c(=O)c1c(NCCCN(CC)CC)ccc3nnn2c31	20.5 µM (inactive)	2.79 µM (inactive)	1.64 µM (inactive)	10.4 µM (inactive)	16.8 µM (inactive)	0.982 µM (active)	2.52 µM (inactive)	3.67 µM (inactive)	11.6 µM (inactive)	2.55 µM (inactive)	15.4 µM (inactive)	18.6 µM (inactive)	16.6 µM (inactive)	11.1 µM (inactive)	1.37 µM (inactive)	3.09 µM	2.17 µM (inactive)	11.7 µM (inactive)	–
Nc1nc2c(ncn2C2C=CC(COS(N)(=O)=O)C2)c(=O)[nH]1 (configuration not stated)	> 100 µM (inactive)	> 100 µM (inactive)	> 100 µM (inactive)	> 100 µM (inactive)	> 100 µM (inactive)	> 100 µM (inactive)	> 100 µM (inactive)	> 100 µM (inactive)	> 100 µM (inactive)	> 100 µM (inactive)	> 100 µM (inactive)	> 100 µM (inactive)	> 100 µM (inactive)	–	> 100 µM (inactive)	> 100 µM	> 100 µM (inactive)	> 100 µM (inactive)	> 100 µM (inactive)
N#CC(NCCc1ccccc1)c1ccc(C(C#N)NCCc2ccccc2)cc1 (configuration not stated)	71.8 µM (inactive)	> 100 µM (inactive)	> 100 µM (inactive)	8.17 µM (inactive)	> 100 µM (inactive)	> 100 µM (inactive)	45.1 µM (inactive)	97.5 µM (inactive)	69.3 µM (inactive)	49.2 µM (inactive)	> 100 µM (inactive)	48.5 µM (inactive)	> 100 µM (inactive)	> 100 µM (inactive)	28.8 µM (inactive)	> 100 µM	–	48 µM (inactive)	14.6 µM (inactive)
CC1=C(C(=O)OCc2ccncc2)C(C2=C(C)SCCS2)C(C(=O)OCc2ccncc2)=C(C)N1	10.6 µM (inactive)	40.8 µM (inactive)	33.3 µM (inactive)	16.7 µM (inactive)	16.1 µM (inactive)	21.3 µM (inactive)	18.8 µM (inactive)	25.1 µM (inactive)	33 µM (inactive)	17.9 µM (inactive)	17.1 µM (inactive)	16.8 µM (inactive)	40.7 µM (inactive)	–	15.1 µM (inactive)	25.6 µM	–	22.2 µM (inactive)	25.4 µM (inactive)
N=C(N)NS(=O)(=O)c1ccc(NNc2c3ccccc3nc3c(C(=O)Nc4ccc(S(=O)(=O)Nc5ncccn5)cc4)cccc23)cc1	–	–	47.8 µM (inactive)	43.7 µM (inactive)	39 µM (inactive)	30.6 µM (inactive)	–	42.2 µM (inactive)	47.2 µM (inactive)	22.9 µM (inactive)	66.7 µM (inactive)	55.1 µM (inactive)	74.8 µM (inactive)	> 100 µM (inactive)	28.4 µM (inactive)	34.1 µM	33.3 µM (inactive)	40.5 µM (inactive)	38.2 µM (inactive)
O=C1C(/N=N/c2ccc(-c3nc4ccccc4o3)cc2)NC(=S)N1c1ccccc1 (configuration not stated)	> 100 µM (inactive)	70 µM (inactive)	> 100 µM (inactive)	> 100 µM (inactive)	22.9 µM (inactive)	> 100 µM (inactive)	35.5 µM (inactive)	0.692 µM (active)	> 100 µM (inactive)	> 100 µM (inactive)	39.1 µM (inactive)	> 100 µM (inactive)	> 100 µM (inactive)	–	> 100 µM (inactive)	62.8 µM	–	> 100 µM (inactive)	0.13 µM (active)
O=C(Nc1nc(C23CC4CC(CC(C4)C2)C3)cs1)c1cc2c(ccc3ccccc32)oc1=O	> 100 µM (inactive)	> 100 µM (inactive)	> 100 µM (inactive)	> 100 µM (inactive)	–	> 100 µM (inactive)	> 100 µM (inactive)	> 100 µM (inactive)	> 100 µM (inactive)	> 100 µM (inactive)	> 100 µM (inactive)	> 100 µM (inactive)	> 100 µM (inactive)	> 100 µM (inactive)	> 100 µM (inactive)	> 100 µM	> 100 µM (inactive)	> 100 µM (inactive)	> 100 µM (inactive)
CC(C)(C)OC(=O)N(CCNS(=O)(=O)c1cccc2cnccc12)CCC(=O)ON1C(=O)CCC1=O	> 100 µM (inactive)	> 100 µM (inactive)	> 100 µM (inactive)	> 100 µM (inactive)	> 100 µM (inactive)	–	> 100 µM (inactive)	> 100 µM (inactive)	> 100 µM (inactive)	> 100 µM (inactive)	> 100 µM (inactive)	> 100 µM (inactive)	> 100 µM (inactive)	–	> 100 µM (inactive)	> 100 µM	> 100 µM (inactive)	> 100 µM (inactive)	–
COc1cccc([C@@H]2C/C(=N\NC(=O)C(=O)N[C@@H](C)c3ccccc3)c3ccccc3N2)c1	23.7 µM (inactive)	> 100 µM (inactive)	46.1 µM (inactive)	> 100 µM (inactive)	51.6 µM (inactive)	10.1 µM (inactive)	> 100 µM (inactive)	> 100 µM (inactive)	71 µM (inactive)	–	82 µM (inactive)	> 100 µM (inactive)	> 100 µM (inactive)	> 100 µM (inactive)	> 100 µM (inactive)	> 100 µM	32.4 µM (inactive)	> 100 µM (inactive)	–
N#Cc1c(N)nc(-c2ccc(Cl)cc2)c2c1-c1ccccc1S(=O)(=O)CC2	46.1 µM (inactive)	> 100 µM (inactive)	> 100 µM (inactive)	37.3 µM (inactive)	> 100 µM (inactive)	> 100 µM (inactive)	> 100 µM (inactive)	53.7 µM (inactive)	53.6 µM (inactive)	> 100 µM (inactive)	> 100 µM (inactive)	> 100 µM (inactive)	> 100 µM (inactive)	> 100 µM (inactive)	> 100 µM (inactive)	> 100 µM	> 100 µM (inactive)	> 100 µM (inactive)	–
C=C(Cl)C(C)(Cl)CCC(Cl)C(C)(C)Cl (configuration not stated)	27 µM (inactive)	> 100 µM (inactive)	44.8 µM (inactive)	46.9 µM (inactive)	–	87.9 µM (inactive)	18.2 µM (inactive)	51.6 µM (inactive)	89.9 µM (inactive)	43.7 µM (inactive)	29.4 µM (inactive)	> 100 µM (inactive)	> 100 µM (inactive)	> 100 µM (inactive)	35.1 µM (inactive)	–	20.5 µM (inactive)	44.8 µM (inactive)	36.2 µM (inactive)
Fc1ccc(-c2sc(-c3cccs3)cc2Cc2cccs2)cc1	> 100 µM (inactive)	> 100 µM (inactive)	> 100 µM (inactive)	> 100 µM (inactive)	> 100 µM (inactive)	> 100 µM (inactive)	> 100 µM (inactive)	> 100 µM (inactive)	> 100 µM (inactive)	80.2 µM (inactive)	> 100 µM (inactive)	> 100 µM (inactive)	> 100 µM (inactive)	> 100 µM (inactive)	> 100 µM (inactive)	> 100 µM	–	> 100 µM (inactive)	> 100 µM (inactive)
O=C(/C=C/c1ccc(O)c(O)c1)NC(CO)C(=O)O (configuration not stated)	> 100 µM (inactive)	> 100 µM (inactive)	> 100 µM (inactive)	> 100 µM (inactive)	> 100 µM (inactive)	> 100 µM (inactive)	> 100 µM (inactive)	> 100 µM (inactive)	> 100 µM (inactive)	> 100 µM (inactive)	> 100 µM (inactive)	> 100 µM (inactive)	> 100 µM (inactive)	> 100 µM (inactive)	> 100 µM (inactive)	1.08 µM	> 100 µM (inactive)	> 100 µM (inactive)	–
C=CCn1c(=O)c2ccccc2[n+]2c(C)c(C(=O)OCC)sc12	> 100 µM (inactive)	> 100 µM (inactive)	> 100 µM (inactive)	90.2 µM (inactive)	> 100 µM (inactive)	> 100 µM (inactive)	> 100 µM (inactive)	> 100 µM (inactive)	> 100 µM (inactive)	> 100 µM (inactive)	> 100 µM (inactive)	> 100 µM (inactive)	> 100 µM (inactive)	–	> 100 µM (inactive)	> 100 µM	> 100 µM (inactive)	> 100 µM (inactive)	> 100 µM (inactive)
CC(C)(C)c1cc(C2NC(=O)NC2=O)cc(C(C)(C)C)c1O (configuration not stated)	20.5 µM (inactive)	29 µM (inactive)	96.8 µM (inactive)	39.5 µM (inactive)	46 µM (inactive)	18.8 µM (inactive)	> 100 µM (inactive)	–	64.6 µM (inactive)	46.5 µM (inactive)	–	31.7 µM (inactive)	> 100 µM (inactive)	> 100 µM (inactive)	27.9 µM (inactive)	93.3 µM	66.5 µM (inactive)	> 100 µM (inactive)	–
NCCCCC(NC(=O)C(N)Cc1ccc(O)cc1)C(=O)NC(CCCCN)C(=O)NC(CCCCN)C(=O)ON1C(=O)CCC1=O (configuration not stated) (H-YKKK-OSu; configuration not given here)	> 100 µM (inactive)	> 100 µM (inactive)	> 100 µM (inactive)	> 100 µM (inactive)	49.5 µM (inactive)	> 100 µM (inactive)	–	> 100 µM (inactive)	–	> 100 µM (inactive)	> 100 µM (inactive)	> 100 µM (inactive)	> 100 µM (inactive)	> 100 µM (inactive)	> 100 µM (inactive)	> 100 µM	> 100 µM (inactive)	> 100 µM (inactive)	> 100 µM (inactive)
